Laboratory results published in patent US20120082626A1, “USE OF R-BAMBUTEROL AS INHALED MEDICAMENT AND COMBINATION THERAPIES FOR TREATMENT OF RESPIRATORY DISORDERS” (priority 2009, published 2012).
Entries after “also recorded” stand apart in the source; their conditions may differ. Marks after values point to notes of the source that are not given here.

Experiments:
[1] = system: OVA evoked asthma in sensitized guinea pigs; test: Airway resistance and dynamic pulmonary compliance after inhalation in OVA sensitized guinea pigs; type: in vivo; conditions: for change of Raw and Cdyn at resting state after inhalation: before OVA challenge; for protection against asthma attack by antigen (OVA) challenge: pretreatment by inhalation about three minutes before OVA challenge
Method: Sensitization of animals: Ovalbumin (10 μg/ml) was injected into guinea-pigs subcutaneously and coincidentally with an intraperitoneal injection of B. pertussis vaccine. Identical injection of ovalbumin and adjuvant were made day 15 and 21 days later. On day 28th the animals were examined and used for studies.
Test Methods: The sensitized guinea pigs wer anaethetized. A cannula was inserted into the trachea. A plueral cannula was inserted into pleural space through the chest wall. Airway resistance (Raw) and dynamic pulmonary compliance (Cdyn) were measured by using the signals of intraplueral pressure, airflow and tidal volume.
The animals were restreined in closed chamber and nebulized R-bambuterol or S-bambuterol were inhaled at the dose of 126 μg/kg. After three minutes conditioning, the animals were then challenged with nebulized OVA to evoke asthma. Airway resistance (Raw) and dynamic pulmonary compliance (Cdyn) were measured before and after evoking asthma.

[2] = system: histamine evoked asthma in conscious guinea-pigs; test: Histamine-evoked asthma in conscious guinea pigs after oral administration; type: in vivo, guinea pigs (Dunkin-Hartley strain); conditions: for Latency: no collapse over 360 sec recorded as 360
Method: (§1) Test methods: Guinea pigs (Dunkin-Hartley strain, 200±30 g) were fasted overnight but given water ad libidum. The animals were restrained individually in a glass chamber and exposed to aerosol histamine generated by a nebulizer from a 0.2% aqueous solution of histamine under constant pressure at dose of 0.5 ml/min for a period of 15 sec. The animal was removed from the chamber, and its behavior was monitored. Assign of collapse and the latency time from exposure to collapse were recorded. Only the animals with latency time less than 120 sec, as an indication of sensitive to histamine, were chosen for later experiments. The animals chosen were allowed to recover completely by resting for 24 hours before experiments. R-bambuterol and racemic bambuterol hydrochloride were dissolved in saline and nublized in a nebulizer.
Comparison of the anti-asthma effects of R-bambuterol (R-BM) and bambuterol (RS-BM) administered by oral and by inhalation in conscious guinea pigs. Test methods: same as Example 1.
Study of dose-response: Same as Example 1, except the following: four hours before the exposure to aerosol histamine, animals were randomized into groups (n=8, equal male and female), and given R-bambuterol hydrochloride or racemic bambuterol hydrochloride in doses of 1.0, 2.0, 4.0 and 8.0 mg/kg, and vehicle control, orally via a stomach tube.

[3] = system: OVA evoked asthma in sensitized guinea pigs; test: Airway resistance in OVA asthma attack after oral administration in sensitized guinea pigs; type: in vivo
Method: Sensitized animals were divided into Saline (control), S-Bambuterol and R-bambuterol groups. R or S bambuterol were administered by both inhalation by oral ([…]). Airway resistance (Raw) and dynamic pulmonary compliance (Cdyn) were measured at resting or during astham challenge by OVA. Animal preparation and experimental methods were similar as described previously.

[4] = system: OVA evoked asthma in sensitized guinea-pigs; test: Relief of antigen-evoked asthma by inhalation after challenge in OVA sensitized guinea-pigs; type: in vivo; conditions: nebulized drug inhaled after antigen challenge
Excerpt: In an embodiment of the invention, the ovalbumin (OVA) sensitized guinea-pigs were first challenged with nebulized antigen to evoke asthma, then the animals were allowed to inhale nebulized R-bambuterol or bambuterol. […] In a further embodiment of the invention, the sensitized guinea-pigs were first pretreated with nebulized R-bambuterol or bambuterol by inhalation. After three minutes, the same animals were challenged with nebulized antigen. […] The fast onset of action in the invention can also not be explained by Svenssion's in vitro metabolic study noted above that the dominate product is mono-carbamate bambuterol and litter terbutaline at initial phase., while the major amount of terbutaline will be formed at much later phase. (Svensson et al., 1988).

[5] = system: OVA evoked asthma in sensitized guinea pigs; test: Airway resistance and dynamic pulmonary compliance after inhalation in OVA sensitized guinea pigs; type: in vivo; conditions: n=8
[6] = system: histamine evoked asthma in conscious guinea-pigs; test: Protection against histamine-evoked asthma by inhaled drug in conscious guinea pigs; type: in vivo, guinea pigs (Dunkin-Hartley strain); conditions: for Latency: no collapse over 360 sec recorded as 360
Method: as §1
Study of dose-response: One hours before the exposure to aerosol histamine, animals were randomized into groups (n=8, equal sex), and Nublized R-bambuterol hydrochloride or bambuterol hydrochloride in doses of 63, 126, 252 and 504 μg/kg, and vehicle control were inhaled by the animals via a mouth and nasal mask. The numbers of collapsed animal as a result of asthmatic reaction to aerosol histamine were counted, and the latency times were recorded. Both of these parameters were used as quantitative measurements of the protective effects of the treatments on bronchospasm evoked by aerosol histamine.

[7] = system: OVA evoked asthma in sensitized guinea pigs; test: Drug tolerance to R-bambuterol induced by pretreatment; type: in vivo; conditions: for Changes in Cdyn During asthma / Changes in Raw During asthma: OVA challenge, n=8
Method: Animal sensitization and experiment methods were similar as discribed above. Briefly, animals were divided into three groups. R-bambuterol (8 mg/kg) or S-bamburerol (8 mg/kg) or 0.9% NaCL (control) were given orally in equal volum to each group seperatedly once a day for 7 consecutive days in order to induce drug tolerances. The Protection effects of same dosage of R-bambuterol against asthma attack induced by OVA challenge were evaluated by the changes of Airway resistance (Raw) and dynamic pulmonary compliance (Cdyn).

[8] = oral; cited from earlier work
[9] = oral, at maximum effective dose (R-BM 4.0, RS-BM 8.0 mg/Kg)
[10] = R-BM inhaled 504 μg/kg, OVA challenge
[11] = after R-BM inhaled 504 μg/kg, before OVA challenge
[12] = inhale, at maximum effective dose (R-BM 0.252, RS-BM 0.505 mg/Kg)
[13] = pretreated with the labelled substance 8 mg/kg orally once a day 7 days, then R-bambuterol
[14] = saline pretreated group, protection by R-bambuterol

With CN(C)C(=O)Oc1cc(OC(=O)N(C)C)cc([C@@H](O)CNC(C)(C)C)c1 [R-bambuterol] the “change of Raw and Cdyn at resting state after inhalation” value [1] was “reduced airway resistance and enhanced pulmonary dynamic compliance”, the “change of Raw and Cdyn at resting state after inhalation” value ([1]; listed as R-Bambuterol) was “no significant changes both in Raw and Cdyn” and the “protection against asthma attack by antigen (OVA) challenge” value [1] was “significant anti-asthma effects; also recorded: fully protection against the asthma attack”. The “protection against asthma attack by antigen (OVA) challenge” value ([1]; listed as R-BM) was “full protection”, the “maximum effective dose required by oral (none of the histamine challenged animals collapsed)” value ([2]; oral) was 4 mg/kg and the Latency ([2]; oral 1.0 mg/Kg) was 179 ± 151 s. For the same molecule, the Latency ([2]; oral 2.0 mg/Kg) was 295 ± 121 s, the “(Collapsed)/No. in group” value ([2]; oral 4.0 mg/Kg, four hours before aerosol histamine, n=8) was 0/8**^▴▴ and the Latency ([2]; oral 4.0 mg/Kg) was 360 ± 0 s. For the same molecule, the Latency ([2]; oral 8.0 mg/Kg) was 360 ± 0 s, the “Animal collapsed (%)” value [2, 9] was 0% and the “Animal collapsed (number/group)” value [2, 9] was 0/8. The “maximum effective dose required by oral (none of the histamine challenged animals collapsed)” value ([2]; oral, listed as R-BM) was “Oral (4.0) mg/Kg”, the “change in Raw / asthmatic response during the asthmatic attack by OVA” value ([3]; oral) was “little changes in Raw” and the “Changes in Airway resistance (Raw) at 4th min after OVA challenge” value ([3]; pretreated oral 4 m/kg, n=8) was 0.14 ± 0.13. The “Changes in Airway resistance (Raw) at 5th min after OVA challenge” value ([3]; pretreated oral 4 m/kg, n=8) was 0.11 ± 0.08, the “relief of asthmatic symptoms after inhalation” value [4] was “immediately relieved within matter of tenths of seconds to a couple of minutes” and the “Cdyn (dynamic pulmonary compliance)” value [5, 10] was 0.62 ± 0.02. The “Raw (airway resistance)” value [5, 10] was 11.51 ± 1.09, the “Cdyn (dynamic pulmonary compliance)” value [5, 11] was 0.70 ± 0.03 and the “Raw (airway resistance)” value [5, 11] was 10.91 ± 0.41. The “dosage required for maximum anti-asthmatic effects (complete protection against histamine) by inhalation” value ([6]; inhalation) was 256 µg/kg, the “maximum effective dose required by inhalation” value ([6]; inhale) was “Inhale (0.252) mg/Kg” and the “Animal collapsed (%)” value [6, 12] was 0%. The “Animal collapsed (number/group)” value [6, 12] was 0/8, the Latency ([6]; inhaled 63 μg/Kg) was 95 ± 108 s and the Latency ([6]; inhaled 126 μg/Kg) was 243 ± 161 s. The Latency ([6]; inhaled 252 μg/Kg) was 360 ± 0 s, the Latency ([6]; inhaled 504 μg/Kg) was 360 ± 0 s and the “potency relative to bambuterol” value ([6]; inhaled aerosols, histamine evoked asthma) was “about twice”. The “Oral:Inhale ratio of maximum effective dose” value ([6]; oral dose vs inhaled dose for maximum anti-asthmatic effect, listed as R-bamubuterol) was 16, the “protection effects of R-bambuterol against asthmatic attack after pretreatment” value ([7]; group pretreated with the labelled substance) was “less than control but no significant differences” and the “Changes in Cdyn During asthma” value [7, 13] was −0.11 ± 0.08. The “Changes in Raw During asthma” value [7, 13] was “+0.13 ± 0.09”, the “protection against asthma attack in control group” value ([7]; saline pretreated control group) was “fully protect against asthma attack” and the “Changes in Cdyn During asthma” value [7, 14] was −0.08 ± 0.06^•. The “Changes in Raw During asthma” value [7, 14] was “+0.09 ± 0.03^•” and the “time of maximum concentration (tmax)” value [8] was “around one”.
